Here are results for one molecule from publication PMC9929129, “Towards Translation of PqsR Inverse Agonists: From In Vitro Efficacy Optimization to In Vivo Proof‐of‐Principle” (Advanced Science, 2023).

Several values for one entry are separate records, joined by “and”; a condition that tells them apart may be missing. Identical values can stand only once. Where only a bound is given, the exact number is not on record here.

For series [1], the system named is PA14 biofilm. In words: eDNA release assay. The note with it: Pseudomonas aeruginosa; PA14, propidium iodine staining. The class given is cell-based. On the procedure: The eDNA release assay was performed as described previously[3] with slight modifications. The impact on eDNA was assessed by incubation of biofilm with propidium iodine solution (0.025 mg mL−1) for 3 h and detection of specific florescence at 620 nm after a thorough washing step with […]
1.2.7 P. aeruginosa clinical isolates from bronchiectasis patients – phenotypic characterization and inhibition of pyocyanin production
Clinical isolates. The P. aeruginosa strains had been isolated from respiratory secretions collected from patients with bronchiectasis seen at the bronchiectasis out-patient clinic of Hannover Medical School. The clinical isolates were genotyped by a custom-made multilocus microarray.[4] The hexadecimal SNP genotype was converted into the multilocus sequence genotype (MLST)[5] by comparison with the sequence of the seven selected housekeeping genes in genome sequences of the same clone deposited in our in-house[6] or the International Pseudomonas Genome Database.[7]

Series [2] in a line: Apparent permeability in Calu-3 cell line. The class given is in vitro ADME. The note with it: human; air–liquid interface.
Series [3] has as its target T1, NET human norepinephrine transporter (Homo sapiens, UniProt P23975).
T1 construct: Eurofins 302000
In words: NET functional antagonist uptake assay (Eurofins). The series is classed as cell-based. On the procedure:
1.4.2 Further functional off-target assays (Eurofins)
Table S8. Compound 24 was further tested in the following functional assays at Eurofins.
ASSAY NAME ESTIMATED IC50 [µM]
NET human norepinephrine transporter functional antagonist uptake >10 µM […]
(§1) FLIPR Assay expressed in HEK293 cells
GABAA α5/β3/γ2 ionotropic receptor (human GABRA5, GABRB3, >30
and GABRG2 genes, expressed in HEK293 cells

Series [4] deals with T2, GABAA α5/β3/γ2 ionotropic receptor (Homo sapiens, UniProt P18507+P28472+P31644).
T2 construct: host or cells: HEK293 cells
As to the kind of experiment: Ion channel profiling at Charles River: GABAA. The series is classed as cell-based. On the procedure:
1.4.3 Ion Channel Profiling at Charles River
Table S9. Compound 24 was tested against the following ion channels at Charles River Laboratories. […]
FASTPatch Assay IK (KCa3.1) calcium-activated potassium channel (human KCNN4 >30 gene) expressed in CHO cells […]
ScreenPatch Assay Kv1.3 potassium channel (human KCNA3 gene) expressed in CHO […]
as §1
GABAA α5/β3/γ2 ionotropic receptor (human GABRA5, GABRB3, >30 and GABRG2 genes, expressed in HEK293 cells

The test system of series [5] is PA14 biofilm. As to the kind of experiment: Biofilm-formation assay (Calgary biofilm device). The series is classed as cell-based, Pseudomonas aeruginosa. To be noted: 24 present from the beginning or added 8 h after onset of biofilm growth; CFU after 48 h. On the procedure: MA, USA) instrument parameters: Spray voltage 3500 V, vaporizer temperature 370 °C, sheath gas pressure 35 psi, aux gas pressure 30 psi, capillary temperature 270 °C, collision pressure 1.5 mTorr, positive ionization mode. For AQ analyte reaction monitoring parameters please see Table S1.
Table S1. LC-ESI-MS/MS reaction monitoring parameters of AQ analytes in positive ionization mode. precursor product ion collision tube lens retention ion m/z m/z energy (V) offset (V) time (min)
1.2.4 Biofilm-formation assay
Biofilm formation was determined using a MBEC Assay® Biofilm Inoculator with 96-well base (Innvotech, Edmonton, CA). An overnight culture of PA14 was centrifuged (10 min, 5000 x g). The supernatant including extracellular polymers was removed and the pellet washed with 10 mL of LB medium. Centrifugation was repeated, the supernatant discarded, and the pellet resuspended in 5 mL of LB. OD was adjusted to 0.2. The bacteria were further diluted in LB medium, followed by addition of the target compound or DMSO control to give OD 0.1 and 1% DMSO. 150 µL were added to each well of the 96-well plate. The outer wells were used as blanks containing 150 µL of 1% DMSO in LB. Six replicates per sample were distributed evenly across the plate, with every row containing one replicate of each sample. […]
Statistical outliers were determined using the Nalimov test, applying a 95% cut-off. […]

Series [6] deals with T3, Potassium Channel hERG (human) (Homo sapiens, UniProt Q12809).
T3 construct: purchased Eurofins Pharma Discovery (Cerep) SafetyScreen44 Panel, ITEM P270
In words: Cerep panel binding assay. The note with it: 10 µM, [3H] Dofetilide. On the procedure:
1.4 Safety Pharmacology of Compound 24
1.4.1 Cerep panel (Eurofins)
Compound 24 was further profiled for its off-target interactions against a panel of 44 targets. The
screening was done by Eurofins Pharma Discovery within the SafetyScreen44 Panel (Cerep, ITEM
P270). In all assays binding/functional inhibition was determined at 10 µM.
Table S6. […]
Potassium Channel hERG (human) [3H] […]

T3 sequence (Q12809 whole entry): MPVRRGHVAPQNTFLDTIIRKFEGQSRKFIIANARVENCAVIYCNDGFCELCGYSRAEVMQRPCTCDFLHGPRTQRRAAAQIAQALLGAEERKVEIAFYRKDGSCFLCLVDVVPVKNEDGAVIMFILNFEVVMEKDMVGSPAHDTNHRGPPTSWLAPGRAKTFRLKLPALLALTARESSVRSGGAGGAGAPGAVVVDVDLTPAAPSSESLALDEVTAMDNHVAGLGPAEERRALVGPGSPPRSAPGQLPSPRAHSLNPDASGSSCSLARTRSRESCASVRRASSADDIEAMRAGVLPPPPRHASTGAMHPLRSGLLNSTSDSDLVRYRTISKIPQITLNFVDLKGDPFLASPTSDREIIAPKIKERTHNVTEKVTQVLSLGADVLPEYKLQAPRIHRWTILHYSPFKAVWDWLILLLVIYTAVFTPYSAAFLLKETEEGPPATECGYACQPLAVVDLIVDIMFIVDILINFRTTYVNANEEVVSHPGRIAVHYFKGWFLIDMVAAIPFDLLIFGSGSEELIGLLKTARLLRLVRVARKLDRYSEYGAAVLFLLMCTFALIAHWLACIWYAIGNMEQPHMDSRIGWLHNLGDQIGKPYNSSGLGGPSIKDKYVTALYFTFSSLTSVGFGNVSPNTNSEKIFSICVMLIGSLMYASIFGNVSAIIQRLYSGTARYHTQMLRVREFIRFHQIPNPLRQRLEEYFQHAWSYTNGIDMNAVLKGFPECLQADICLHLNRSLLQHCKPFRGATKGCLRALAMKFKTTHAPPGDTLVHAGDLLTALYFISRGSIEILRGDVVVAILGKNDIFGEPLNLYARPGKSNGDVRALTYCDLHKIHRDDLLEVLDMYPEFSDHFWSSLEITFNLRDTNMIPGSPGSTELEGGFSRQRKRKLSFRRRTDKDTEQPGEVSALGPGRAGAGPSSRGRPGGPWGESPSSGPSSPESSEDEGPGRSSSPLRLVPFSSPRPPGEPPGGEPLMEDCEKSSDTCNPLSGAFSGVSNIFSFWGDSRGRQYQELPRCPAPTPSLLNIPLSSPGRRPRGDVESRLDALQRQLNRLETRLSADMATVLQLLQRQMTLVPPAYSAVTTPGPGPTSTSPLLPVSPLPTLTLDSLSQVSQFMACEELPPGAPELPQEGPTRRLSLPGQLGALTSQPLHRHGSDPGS
T1 sequence (P23975 whole entry): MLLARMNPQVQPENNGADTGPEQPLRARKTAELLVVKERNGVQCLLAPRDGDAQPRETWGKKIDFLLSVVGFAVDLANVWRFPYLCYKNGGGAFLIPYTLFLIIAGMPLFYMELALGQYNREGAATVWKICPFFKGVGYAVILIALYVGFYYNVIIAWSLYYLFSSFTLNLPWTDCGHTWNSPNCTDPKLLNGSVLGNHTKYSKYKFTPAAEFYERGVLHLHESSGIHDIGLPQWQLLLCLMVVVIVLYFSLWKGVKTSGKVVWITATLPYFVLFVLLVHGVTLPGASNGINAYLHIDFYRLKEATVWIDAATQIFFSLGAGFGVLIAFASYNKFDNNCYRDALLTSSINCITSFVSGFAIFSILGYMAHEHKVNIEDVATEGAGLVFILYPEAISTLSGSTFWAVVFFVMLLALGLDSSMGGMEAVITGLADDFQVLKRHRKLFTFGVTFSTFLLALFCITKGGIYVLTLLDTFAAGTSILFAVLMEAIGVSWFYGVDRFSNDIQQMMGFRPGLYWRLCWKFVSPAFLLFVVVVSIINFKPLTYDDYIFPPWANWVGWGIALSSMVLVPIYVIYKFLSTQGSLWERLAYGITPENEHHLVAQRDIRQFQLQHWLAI
T2 sequence (P31644 32-462): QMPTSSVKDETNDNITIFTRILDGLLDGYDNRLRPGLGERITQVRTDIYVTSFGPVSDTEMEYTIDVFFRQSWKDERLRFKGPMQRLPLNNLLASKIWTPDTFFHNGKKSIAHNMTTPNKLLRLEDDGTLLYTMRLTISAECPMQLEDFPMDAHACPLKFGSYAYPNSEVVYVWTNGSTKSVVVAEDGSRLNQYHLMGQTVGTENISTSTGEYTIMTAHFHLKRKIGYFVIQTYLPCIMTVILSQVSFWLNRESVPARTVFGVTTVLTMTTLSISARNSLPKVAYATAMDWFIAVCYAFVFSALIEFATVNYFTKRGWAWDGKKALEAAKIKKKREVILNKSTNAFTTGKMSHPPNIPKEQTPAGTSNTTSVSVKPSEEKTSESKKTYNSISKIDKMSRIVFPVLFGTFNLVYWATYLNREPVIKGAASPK
T2 sequence (P28472 26-473): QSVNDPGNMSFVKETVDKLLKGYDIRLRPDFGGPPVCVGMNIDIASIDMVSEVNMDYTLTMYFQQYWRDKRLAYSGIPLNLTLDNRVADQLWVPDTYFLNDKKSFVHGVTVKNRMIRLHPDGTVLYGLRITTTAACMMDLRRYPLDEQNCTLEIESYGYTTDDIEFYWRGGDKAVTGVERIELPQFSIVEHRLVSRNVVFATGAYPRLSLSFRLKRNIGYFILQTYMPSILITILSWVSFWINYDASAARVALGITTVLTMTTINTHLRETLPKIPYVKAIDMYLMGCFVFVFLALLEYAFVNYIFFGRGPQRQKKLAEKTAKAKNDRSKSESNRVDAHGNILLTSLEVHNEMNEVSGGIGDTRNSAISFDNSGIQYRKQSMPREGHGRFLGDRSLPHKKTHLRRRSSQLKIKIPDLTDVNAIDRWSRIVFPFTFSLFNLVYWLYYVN
T2 sequence (P18507 40-475): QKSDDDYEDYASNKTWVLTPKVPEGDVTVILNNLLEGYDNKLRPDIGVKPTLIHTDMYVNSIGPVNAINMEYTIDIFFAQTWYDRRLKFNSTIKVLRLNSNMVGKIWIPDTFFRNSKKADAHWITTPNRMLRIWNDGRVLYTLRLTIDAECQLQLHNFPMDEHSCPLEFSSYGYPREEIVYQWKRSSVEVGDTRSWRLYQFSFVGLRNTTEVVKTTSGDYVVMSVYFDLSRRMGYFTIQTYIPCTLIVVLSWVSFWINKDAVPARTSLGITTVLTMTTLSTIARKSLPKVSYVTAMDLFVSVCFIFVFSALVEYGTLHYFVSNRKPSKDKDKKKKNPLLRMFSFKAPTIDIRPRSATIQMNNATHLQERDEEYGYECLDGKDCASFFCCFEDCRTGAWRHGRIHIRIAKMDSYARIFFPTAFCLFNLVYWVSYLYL

The term IC50 denotes the concentration that gives 50% inhibition. A lower IC50 goes with inhibition by little substance. Broadly, the Papp is the rate of passage across a membrane or cell layer, normalised by area and donor concentration. For the molecule `CC(C)Oc1ccc(-c2ncc(CNc3ccnc(C(F)(F)F)c3)cn2)cc1Cl` [Compound 24], the IC50 is 0.346 µM with PA14 biofilm [1], over 10 µM in series [3] and over 30 µM in series [4]. In addition, the Papp at 4 h in series [2] was 3.1 ± 0.28 ×10⁻⁶ cm/s. The “PA14 biofilm formation (CFU) compared to DMSO control” value with PA14 biofilm [5] is reported as “significantly attenuates”. In series [6], the “BINDING (%)” value was 73.1% and > 50%.
